In PubChem BioAssay (NCI):
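Protocol summary: plate cells (96-well), add compound at 5 concentrations, incubate 48 h, interpolate endpoints linearly. The concentration for full growth arrest is given as TGI.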

What was measured:
Experiment in all cases: NCI tumour cell line growth inhibition, 48 h
SNB-78 CNS = test system: SNB-78 CNS
RXF-631 renal = test system: RXF-631 renal
DMS 273 small cell lung = test system: DMS 273 small cell lung
DLD-1 colon = test system: DLD-1 colon
M19-MEL melanoma = test system: M19-MEL melanoma
XF 498 CNS = test system: XF 498 CNS
HOP-18 NSCLC = test system: HOP-18 NSCLC
P388 leukemia = test system: P388 leukemia
SN12K1 renal = test system: SN12K1 renal
P388/ADR leukemia = test system: P388/ADR leukemia

Compound | TGI (SNB-78 CNS) [µM] | TGI (RXF-631 renal) [µM] | TGI (DMS 273 small cell lung) [µM] | TGI (DLD-1 colon) [µM] | TGI (M19-MEL melanoma) [µM] | TGI (XF 498 CNS) [µM] | TGI (HOP-18 NSCLC) [µM] | TGI (P388 leukemia) [µM] | TGI (SN12K1 renal) [µM] | TGI (P388/ADR leukemia) [µM]
Clc1ccc2c(NCCCCCCNc3ccnc4cc(Cl)ccc34)ccnc2c1 | 3.87 | 6.02 | 11.7 | 10.3 | 8.83 | 2.96 | – | – | – | –
COc1ccccc1NC(=O)C(=O)C(C(=O)c1ccccc1F)C1OC(=O)c2ccccc21 (configuration not stated) | > 100 | 67.8 | > 100 | > 100 | 61.6 | > 100 | – | – | – | –
CC1=C(CO)C(=O)OC(C(C)C2CCC3C4CC5OC56C(O)C(N5CC5)=CC(=O)C6(C)C4CCC23C)C1 (configuration not stated) | 46.9 | 34.5 | 17.9 | 17.6 | 23.5 | 16.4 | – | – | – | –
NC(=O)CCC(N=c1c2ccccc2n(O)c2ccccc12)C(=O)O (configuration not stated) | > 100 | – | > 100 | > 100 | > 100 | – | 98.4 | – | – | –
CC(C)CCCC(C)[C@H]1CCC(C2C[C@@H](O)[C@@H]3CC(O)[C@@H](O)C[C@]3(CO)C2=O)[C@]1(C)CCO (some centres not stated) | 85.5 | – | > 68.5 | > 100 | 39 | > 59.6 | 47.7 | 49.5 | 37.4 | > 88.7
CCOc1ccc2nc(NC(=O)C(=O)C(C(=O)c3ccccc3F)C3OC(=O)c4ccccc43)sc2c1 (configuration not stated) | 74.4 | 70.1 | 51.4 | > 100 | 27 | 46.2 | – | – | – | –
C[s+]1c2ccccc2c2ccccc21 | > 100 | – | > 100 | – | > 100 | > 100 | – | – | – | –
N#Cc1ccccc1NC(=O)C(=O)C(C(=O)c1ccccc1F)C1OC(=O)c2ccccc21 (configuration not stated) | 90.2 | – | > 100 | > 100 | > 100 | > 100 | – | – | – | –
